# Results published in patent US20130310379A1, “MODULATORS OF METHYL MODIFYING ENZYMES, COMPOSITIONS AND USES THEREOF” (CONSTELLATION PHARMACEUTICALS, priority 2010, published 2013).
# Target: EZH2 (Homo sapiens, UniProt Q15910)
# Assay: EZH2 assay: rPRC2 with biotinylated oligonucleosome substrates and 3H SAM, FlashPlate scintillation counting, IC50
# Assay type: biochemical
# Settings: rPRC2, biotinylated oligonucleosome substrates, 3H SAM; read-out: EZH2 IC50
# Procedure, shortened: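 IC50 from 4-parameter fit, baselines fixed at 0 and 100%. Compounds (top 80 uM, 2-fold series to 0.16 uM) pre-incubated 20 min with 2 nM EZH2-PRC2; 60-min methylation in pH 8.5 Tris with 0.2 uM 3H SAM, 0.2 uM oligonucleosomes, 3.6 uM H3K27me3 peptide.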
# Sequence of EZH2 (Q15910 whole entry): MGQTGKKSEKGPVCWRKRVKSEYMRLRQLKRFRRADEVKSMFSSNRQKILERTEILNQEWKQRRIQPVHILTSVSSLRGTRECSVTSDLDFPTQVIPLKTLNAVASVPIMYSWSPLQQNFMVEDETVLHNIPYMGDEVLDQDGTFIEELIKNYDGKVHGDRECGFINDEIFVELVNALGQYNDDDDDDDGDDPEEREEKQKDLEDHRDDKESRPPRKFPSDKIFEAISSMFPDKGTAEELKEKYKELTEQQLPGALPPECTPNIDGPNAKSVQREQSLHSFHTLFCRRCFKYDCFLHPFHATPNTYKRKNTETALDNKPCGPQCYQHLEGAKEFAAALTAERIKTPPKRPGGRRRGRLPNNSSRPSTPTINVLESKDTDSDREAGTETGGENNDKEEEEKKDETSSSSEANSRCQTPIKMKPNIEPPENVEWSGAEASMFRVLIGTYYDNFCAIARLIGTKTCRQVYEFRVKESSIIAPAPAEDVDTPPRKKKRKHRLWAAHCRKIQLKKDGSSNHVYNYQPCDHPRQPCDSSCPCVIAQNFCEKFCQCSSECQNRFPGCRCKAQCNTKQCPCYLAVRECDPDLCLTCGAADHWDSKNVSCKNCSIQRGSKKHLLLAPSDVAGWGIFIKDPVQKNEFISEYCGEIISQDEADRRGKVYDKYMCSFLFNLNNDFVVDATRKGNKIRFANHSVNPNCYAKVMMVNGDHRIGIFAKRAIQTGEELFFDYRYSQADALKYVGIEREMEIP
# Sequence of EZH2 (O75530 whole entry partner): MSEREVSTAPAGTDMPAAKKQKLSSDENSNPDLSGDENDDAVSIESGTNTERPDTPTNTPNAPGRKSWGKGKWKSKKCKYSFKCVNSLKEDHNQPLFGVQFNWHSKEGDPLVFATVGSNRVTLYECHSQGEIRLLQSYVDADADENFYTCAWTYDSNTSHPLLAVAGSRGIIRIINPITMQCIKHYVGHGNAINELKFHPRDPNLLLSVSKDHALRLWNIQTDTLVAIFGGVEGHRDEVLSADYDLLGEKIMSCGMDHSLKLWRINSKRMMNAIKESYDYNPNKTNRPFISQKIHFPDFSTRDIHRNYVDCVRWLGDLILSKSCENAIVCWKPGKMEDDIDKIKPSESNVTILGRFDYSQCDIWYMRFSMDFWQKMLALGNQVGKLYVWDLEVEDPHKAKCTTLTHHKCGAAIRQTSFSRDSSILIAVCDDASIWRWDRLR
# Sequence of EZH2 (Q15022 whole entry partner): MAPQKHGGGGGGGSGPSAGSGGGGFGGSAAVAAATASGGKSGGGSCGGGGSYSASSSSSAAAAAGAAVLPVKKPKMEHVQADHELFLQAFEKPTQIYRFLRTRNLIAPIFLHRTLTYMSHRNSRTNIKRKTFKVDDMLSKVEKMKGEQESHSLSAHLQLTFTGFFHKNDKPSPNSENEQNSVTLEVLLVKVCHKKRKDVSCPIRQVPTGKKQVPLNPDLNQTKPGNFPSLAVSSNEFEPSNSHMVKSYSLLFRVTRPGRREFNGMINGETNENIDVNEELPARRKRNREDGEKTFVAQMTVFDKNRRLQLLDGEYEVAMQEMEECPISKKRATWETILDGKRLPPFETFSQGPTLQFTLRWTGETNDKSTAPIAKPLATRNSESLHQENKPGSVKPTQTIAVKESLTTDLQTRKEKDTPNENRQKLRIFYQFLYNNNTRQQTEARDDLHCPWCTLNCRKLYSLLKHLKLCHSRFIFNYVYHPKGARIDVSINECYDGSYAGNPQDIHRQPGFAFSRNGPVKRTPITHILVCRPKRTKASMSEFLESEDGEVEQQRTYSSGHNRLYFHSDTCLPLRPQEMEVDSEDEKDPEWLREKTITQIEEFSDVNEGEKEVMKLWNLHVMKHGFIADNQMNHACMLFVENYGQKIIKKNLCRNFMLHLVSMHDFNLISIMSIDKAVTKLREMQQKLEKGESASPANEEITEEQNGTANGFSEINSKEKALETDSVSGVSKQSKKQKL
row,IC50 [µM],Structure (SMILES)
1,20 to 80,COc1ccc(-c2cccc(OCc3ccc(C(=O)NC4CC(C)(C)NC(C)(C)C4)cc3)c2)cn1 [Compound I-41]
2,> 80,CC(c1ccccc1)c1ccc(C(=O)NC2CC(C)(C)NC(C)(C)C2)cc1 (stereo not shown) [Compound I-426]
3,< 5,CC1(C)CC(NC(=O)c2ccc(Oc3cccc(-c4ccnnc4)c3C#N)c(Cl)c2)CC(c2ccccc2)N1 (stereo not shown) [Compound I-477]
4,> 80,"CN(c1ccccc1)c1ccc(C(=O)NC2CC(C)(C)NC(C)(C)C2)cc1 [Compound I-108, 4-(Methyl(phenyl)amino)-N-(2,2,6,6-tetramethylpiperidin-4-yl)benzamide]"
5,20 to 80,Cc1cccc(Oc2ccc(C(=O)NC3CC(C)(C)NC(C)(C)C3)cc2)c1 [Compound I-60]
6,> 80,CC1(C)CC(NC(=O)c2ccc(OC3CCCC3)cc2)CC(C)(C)N1 [Compound I-299]
7,< 5,CC1(C)CC(NC(=O)c2ccc(COc3cccc4c3CCCC4)cc2)CC(C)(C)N1 [Compound I-188]
8,20 to 80,CC1(C)CC(NC(=O)c2ccc(COCc3ccccc3)cc2)CC(C)(C)N1 [Compound I-62]
9,5 to 20,CC(Oc1ccccc1Oc1ccc(C(=O)NC2CC(C)(C)NC(C)(C)C2)cc1)c1ccccc1 (stereo not shown) [Compound I-208]
10,20 to 80,Cc1cccc(OCc2ccc(C(=O)NC3CC(C)(C)NC(C)(C)C3)cc2)c1C [Compound I-54]
11,< 5,CC1(C)CC(NC(=O)c2ccc(Oc3ccccc3C#N)c(Cc3ccccc3)c2)CC(C)(C)N1 [Compound I-201]
12,20 to 80,CC1(C)CC(NC(=O)c2ccc(Oc3cccc4cccnc34)cc2)CC(C)(C)N1 [Compound I-331]
13,< 5,CC1(C)CC(NC(=O)c2ccc(Oc3ccccc3C#N)c(C3CC3)c2)CC(C)(C)N1 [Compound I-221]
14,< 5,CC1(C)CC(NC(=O)c2cnc(Oc3cccc(-c4cn[nH]c4)c3C#N)c(Cl)c2)CC(C)(C)N1 [Compound I-435]
15,20 to 80,CC1(C)CC(NC(=O)c2ccc(Oc3ccccc3CC#N)cc2)CC(C)(C)N1 [Compound I-305]
16,< 5,Cc1cccc(Oc2ccc(C(=O)NC3CC(C)(C)NC(C)(C)C3)cc2Cl)c1C#N [Compound I-309]
17,> 80,CC1(C)CC(NC(=O)c2ccc(Oc3ccccc3C#N)c(Cl)c2)CC(C)(C)N1CC(N)=O [Compound I-452]
18,> 80,Cn1cncc1COc1ccc(C(=O)NC2CC(C)(C)NC(C)(C)C2)cc1Cl [Compound I-390]
19,> 80,Cc1cc(C)cc(Oc2ccc(C(=O)NC3CC(C)(C)NC(C)(C)C3)cc2)c1 [Compound I-119]
20,> 80,O=C(N[C@H]1CCN(Cc2ccccc2)C1)c1ccc(Oc2ccccc2)cc1 [Compound I-100]
21,< 5,CN(C)c1ccc(-c2cccc(Oc3ccc(C(=O)NC4CC(C)(C)NC(C)(C)C4)cc3Cl)c2C#N)cn1 [Compound I-557]
22,5 to 20,Cc1ccc(-c2cccc(OCc3ccc(C(=O)NC4CC(C)(C)NC(C)(C)C4)cc3)c2)s1 [Compound I-18]
23,20 to 80,CC1(C)CC(CC(=O)O)(NC(=O)c2ccc(Oc3cccc(-c4ccnnc4)c3C#N)c(Cl)c2)CC(C)(C)N1 [Compound I-482]
24,< 5,CN(C)C(=O)CCc1cccc(Oc2ccc(C(=O)NC3CC(C)(C)NC(C)(C)C3)cc2Cl)c1C#N [Compound I-552]
25,5 to 20,CC1(C)CC(NC(=O)c2ccc(Oc3ccccc3-c3ccccn3)c(Cl)c2)CC(C)(C)N1 [Compound I-225]

row,IC50 [µM],Structure (SMILES)
1,5 to 20,CC1(C)CC(NC(=O)c2ccc(-n3ncc4c(Br)cccc43)c(Cl)c2)CC(C)(C)N1 [Compound I-490]
2,20 to 80,CC1(C)CC(NC(=O)c2ccc(Oc3ccccc3C(C)(C)C)c(Cl)c2)CC(C)(C)N1 [Compound I-210]
3,> 80,O=C(c1ccc(Oc2ccccc2)cc1)N1CCN(c2ccccc2)CC1 [Compound I-99]
4,< 5,C#Cc1cccc(OCc2ccc(C(=O)NC3CC(C)(C)NC(C)(C)C3)cc2)c1 [Compound I-184]
5,20 to 80,CC1(C)CC(NC(=O)c2ccc(Oc3cccc(C(C)(C)C#N)c3)c(Cl)c2)CC(C)(C)N1 [Compound I-462]
6,20 to 80,"CC(=O)Nc1cccc(Oc2ccc(C(=O)NC3CC(C)(C)NC(C)(C)C3)cc2)c1 [Compound I-26, 4-(3-Acetamidophenoxy)-N-(2,2,6,6-tetramethylpiperidin-4-yl)benzamide]"
7,< 5,COC(=O)c1ccc(-c2ccccc2Oc2ccc(C(=O)NC3CC(C)(C)NC(C)(C)C3)cc2Cl)cn1 [Compound I-294]
8,> 80,CC1(C)CC(NC(=O)c2ccc(O[C@H]3CCNC3=O)c(Cl)c2)CC(C)(C)N1 [Compound I-457]
9,> 80,CC1(C)CC(NCc2ccc(Oc3ccccc3C#N)cc2)CC(C)(C)N1 [Compound I-306]
10,5 to 20,N#Cc1c(Oc2ccc(C(=O)NC3CCN(CCN)CC3)cc2Cl)cccc1-c1ccnnc1 [Compound I-486]
11,5 to 20,Cc1ncccc1-c1ccccc1Oc1ccc(C(=O)NC2CC(C)(C)NC(C)(C)C2)cc1Cl [Compound I-293]
12,> 80,CC1(C)CC(NC(=O)c2ccc(CCOc3ccccc3)cc2)CC(C)(C)N1 [Compound I-292]
13,20 to 80,COc1cncc(-c2cccc(OCc3ccc(C(=O)NC4CC(C)(C)NC(C)(C)C4)cc3)c2)c1 [Compound I-37]
14,> 80,CC1(C)CC(NC(=O)c2ccc(CSc3ccccc3)cc2)CC(C)(C)N1 [Compound I-83]
15,> 80,CC1(C)CC(NC(=O)N2CCN(Cc3ccccc3C#N)CC2)CC(C)(C)N1 [Compound I-438]
16,> 80,COc1cc(C(=O)NC2CC(C)(C)NC(C)(C)C2)cc2c1OCCO2 [Compound I-471]
17,5 to 20,CC1(C)CC(NC(=O)c2ccc(Oc3ccccc3C#N)c(-c3cncnc3)c2)CC(C)(C)N1 [Compound I-202]
18,< 5,COC(C)c1cccc(Oc2ccc(C(=O)NC3CC(C)(C)NC(C)(C)C3)cc2Cl)c1C#N (stereo not shown) [Compound I-420]
19,> 80,CN(C)Cc1ccccc1Oc1ccc(C(=O)NC2CC(C)(C)NC(C)(C)C2)cc1 [Compound I-275]
20,20 to 80,CC1(C)CC(NC(=O)c2ccc(NC(=O)c3cccc(Br)c3)cc2)CC(C)(C)N1 [Compound I-162]
21,20 to 80,Cc1cc(C(=O)NC2CC(C)(C)NC(C)(C)C2)cc(C)c1Oc1ccccc1C#N [Compound I-335]
22,20 to 80,CC1(C)CC(NC(=O)c2ccc(Oc3ccccc3C#N)c(Cl)c2)C(F)C(C)(C)N1 (stereo not shown) [Compound I-434]
23,5 to 20,CC1(C)CC(NC(=O)c2ccc(Oc3ccccc3Cc3ccccc3)cc2)CC(C)(C)N1 [Compound I-149]
24,5 to 20,CC1CC(NC(=O)c2ccc(Oc3ccccc3C#N)c(Cl)c2)CC(C)(C)N1 (stereo not shown) [Compound I-461]
25,> 80,CC1(C)CC(NC(=O)c2ccc(-n3cnc4ccccc43)c(Cl)c2)CC(C)(C)N1 [Compound I-303]

row,IC50 [µM],Structure (SMILES)
1,> 80,CC1(C)CC(NC(=O)N2CCC(c3ccccc3)C2)CC(C)(C)N1 (stereo not shown) [Compound I-470]
2,5 to 20,CC1(C)CC(NC(=O)c2ccc(Oc3cccc(C(N)=O)c3C#N)c(Cl)c2)CC(C)(C)N1 [Compound I-394]
3,20 to 80,COc1ccc(OCc2ccc(C(=O)NC3CC(C)(C)NC(C)(C)C3)cc2)cc1 [Compound I-63]
4,< 5,CC1(C)CC(NC(=O)c2ccc(Oc3ccccc3-c3ccncc3)c(Cl)c2)CC(C)(C)N1 [Compound I-226]
5,20 to 80,Cc1cccc(Oc2ccc(C(=O)NC3CC(C)(C)NC(C)(C)C3)cc2Cl)c1-c1ccncc1 [Compound I-383]
6,> 80,CC1(C)CC(NC(=O)c2ccc(Oc3ccc4[nH]ccc4c3)cc2)CC(C)(C)N1 [Compound I-82]
7,> 80,CC1(C)CC(NC(=O)c2ccc3c(c2)Cc2ccccc2O3)CC(C)(C)N1 [Compound I-412]
8,5 to 20,CC1(C)CC(NC(=O)c2ccc(Oc3ccccc3C3CCCCC3)cc2)CC(C)(C)N1 [Compound I-150]
9,20 to 80,CC1(C)CC(NC(=O)c2ccc(Oc3cccc(-c4cnc(N)nc4)c3)cc2)CC(C)(C)N1 [Compound I-251]
10,20 to 80,CC(C)NCc1cccc(Oc2ccc(C(=O)NC3CC(C)(C)NC(C)(C)C3)cc2Cl)c1 [Compound I-422]
11,< 5,CC1(C)CC(NC(=O)c2ccc(Oc3cccc(CCC(=O)N4CCCC4)c3C#N)c(Cl)c2)CC(C)(C)N1 [Compound I-553]
12,< 5,Cc1ccc(-c2cccc(Oc3ccc(C(=O)NC4CC(C)(C)NC(C)(C)C4)cc3Cl)c2C#N)s1 [Compound I-323]
13,> 80,CC1(C)CC(NC(=O)c2ccc(COc3ccnc4ccccc34)cc2)CC(C)(C)N1 [Compound I-128]
14,> 80,CC1(C)CC(NC(=O)c2ccc(Oc3ccccc3C#N)c(Cl)c2)CC(C)(C)N1CC(=O)O [Compound I-424]
15,20 to 80,CC1(C)CC(NC(=O)c2ccc(Oc3nccc4ccccc34)c(Cl)c2)CC(C)(C)N1 [Compound I-242]
16,> 80,CC1(C)CC(NC(C(=O)O)c2ccc(Oc3ccccc3C#N)c(Cl)c2)CC(C)(C)N1 (stereo not shown) [Compound I-483]
17,> 80,"CC(Oc1ccccc1)c1ccc(C(=O)NC2CC(C)(C)NC(C)(C)C2)cc1 (stereo not shown) [Compound I-118, 4-(1-phenoxyethyl)-N-(2,2,6,6-tetramethylpiperidin-4-yl)benzamide]"
18,> 80,CC1(C)CC(NC(=O)c2ccc(Oc3ccccc3O)cc2)CC(C)(C)N1 [Compound I-123]
19,< 5,CC1(C)CC(NC(=O)c2ccc(Oc3cccc(C4CCCN4)c3C#N)c(Cl)c2)CC(C)(C)N1 (stereo not shown) [Compound I-562]
20,> 80,CC1(C)CC(NC(=O)c2ccc(Oc3ccccc3C(=O)O)c(Cl)c2)CC(C)(C)N1 [Compound I-353]
21,> 80,CC1(C)CC(NC(=O)c2ccc(COc3cccc(N4CCOCC4)c3)cc2)CC(C)(C)N1 [Compound I-164]
22,< 5,CC1(C)CC(NC(=O)c2ccc(Oc3cccc(-c4ncccn4)c3C#N)c(Cl)c2)CC(C)(C)N1 [Compound I-445]
23,< 5,CC1(C)CC(NC(=O)c2ccc(Oc3ccccc3-c3ncco3)c(Cl)c2)CC(C)(C)N1 [Compound I-253]
